The record followed here is US20210122739A1, “NOVEL SULFONAMIDE CARBOXAMIDE COMPOUNDS” (Inflazome Limited, priority 2017, published 2021).

The IC50 is the concentration that gives 50% inhibition. For orientation: CL/F means the apparent clearance, not corrected for the fraction that reaches the circulation. As a reminder, the Tmax is the time at which the peak concentration occurs. Usually bioavailability stands for the share of a dose that reaches the circulation, judged against a reference dose that is usually intravenous. As usually defined, the half-life is how long it takes for the measured level to halve.

Series [1] deals with T1, NLRP3 (Homo sapiens, UniProt Q96P20). Description: THP-1 cells pyroptosis assay. It counts as cell-based. More on the design: Seed THP-1 cells (25,000 cells/well) containing 1.0 μg/ml LPS; host or cells: THP-1 cells, LPS-primed, nigericin-stimulated. The settings on record: 1.0 μg/ml LPS, nigericin 5 μM, resazurin readout. The method in brief:
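THP-1 cells (25,000/well, serum-free RPMI) primed with 1 μg/ml LPS were given compound (8-point half-log series, top 10 μM; 0.1% DMSO) for 3 h at 37 °C, then 5 μM nigericin for 1 h. Viability read by 100 μM resazurin fluorescence (Ex 560/Em 590) after 1–2 h; IC50 from four-parameter nonlinear regression.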
Background: Alamar Blue is a resazurin reagent that responds to reducing activity.

Series [2] has as its target T1, NLRP3. As to the kind of experiment: Human whole blood IL1β release assay. The series is classed as cell-based. Also on record: Plate out 80 μl of whole blood containing 1 μg/ml of LPS; from tissue; host or cells: human whole blood from healthy donors, LPS-primed, nigericin-stimulated. The settings on record: 1 μg/ml LPS, nigericin 10 μM, IL-1β by AlphaLisa, read-out: HWB IC50. On the procedure:
For systemic delivery, the ability to inhibit NLRP3 when the compounds are present within the bloodstream is of great importance. For this reason, the NLRP3 inhibitory activity of a number of compounds in human whole blood was investigated in accordance with the following protocol.
Human whole blood in Li-heparin tubes was obtained from healthy donors from a volunteer donor panel. • 1. Plate out 80 μl of whole blood containing 1 μg/ml of LPS in 96-well, clear bottom cell culture plate (Corning #3585) • 2. Add 10 μl compound (8 points half-log dilution with 10 μM top dose) or vehicle (DMSO 0.1% FAC) to the appropriate wells • 3. Incubate for 3 hrs at 37° C., 5% CO2 • 4. Add 10 μl Nigericin (Sigma #N7143) (10 μM FAC) to all wells • 5. Incubate for 1 hr at 37° C., 5% CO2 • 6. At the end of the incubation period, spin plates at 300×g for 5 mins to pellet cells and remove 20 μl of supernatant and add to 96-well v-bottom plates for IL-1β analysis (note: these plates containing the supernatants can be stored at −80° C. to be analysed at a later date) • 7. IL-1β was measured according to the manufacturer protocol (Perkin Elmer-AlphaLisa IL-1 Kit AL220F-5000) • 8. IC50 data is fitted to anon-linear regression equation (log inhibitor vs response-variable slope 4-parameters)
For orientation: Alpha assays give light when donor and acceptor beads are brought close together.

A short description of series [3]: PK protocol: pharmacokinetic parameters in male Sprague Dawley rats. The series is classed as in vivo. The following applies: plasma, oral administration, rat, dose per compound in Dose column (3 or 5 mg/kg). On the procedure:
Pharmacokinetic parameters were determined in male Sprague Dawley rats (Charles River, UK, 250-350 g; or Vital River Laboratory Animal Technology Co Ltd, Beijing, China, 7-9 weeks old). Animals were individually housed during the study and maintained under a 12 h light/dark cycle. Animals had free access to food and water except that some orally dosed animals were food deprived overnight prior to the study.
For intravenous administration, compounds were formulated as a solution in water or DMSO:PBS [10:90] in 2 mL/kg dosing volume and administered via tail vein. For oral administration, compounds were formulated as a solution in water or DMSO:water [10:90] in 5 mL/kg dosing volume and administered orally.
Serial blood samples (about 120-300 μL) were taken from each animal at each of 8 time-points post dose (0.083, 0.25, 0.5, 1, 2, 4, 8 and 24 h) or at each of 12 time-points post dose (0.03, 0.1, 0.17, 0.25, 0.5, 1, 2, 4, 6, 8, 12 and 24 h) or pre-dose and at each of 9 time-points post dose (0.25, 0.5, 1, 2, 4, 6, 8, 12 and 24 h). Samples were held on ice for no longer than 30 minutes before centrifugation (10,000 rpm (8,385 g) for 3 minutes; or 5,696 rpm (3,000 g) for 15 minutes) for plasma generation. Plasma was frozen on dry ice prior to bioanalysis. PK parameters were generated from LC-MS/MS data using Dotmatics or Phoenix WinNonlin 6.3 software.

A value given as a limit tells only on which side of the number the result lay.

T1 sequence (Q96P20 whole entry): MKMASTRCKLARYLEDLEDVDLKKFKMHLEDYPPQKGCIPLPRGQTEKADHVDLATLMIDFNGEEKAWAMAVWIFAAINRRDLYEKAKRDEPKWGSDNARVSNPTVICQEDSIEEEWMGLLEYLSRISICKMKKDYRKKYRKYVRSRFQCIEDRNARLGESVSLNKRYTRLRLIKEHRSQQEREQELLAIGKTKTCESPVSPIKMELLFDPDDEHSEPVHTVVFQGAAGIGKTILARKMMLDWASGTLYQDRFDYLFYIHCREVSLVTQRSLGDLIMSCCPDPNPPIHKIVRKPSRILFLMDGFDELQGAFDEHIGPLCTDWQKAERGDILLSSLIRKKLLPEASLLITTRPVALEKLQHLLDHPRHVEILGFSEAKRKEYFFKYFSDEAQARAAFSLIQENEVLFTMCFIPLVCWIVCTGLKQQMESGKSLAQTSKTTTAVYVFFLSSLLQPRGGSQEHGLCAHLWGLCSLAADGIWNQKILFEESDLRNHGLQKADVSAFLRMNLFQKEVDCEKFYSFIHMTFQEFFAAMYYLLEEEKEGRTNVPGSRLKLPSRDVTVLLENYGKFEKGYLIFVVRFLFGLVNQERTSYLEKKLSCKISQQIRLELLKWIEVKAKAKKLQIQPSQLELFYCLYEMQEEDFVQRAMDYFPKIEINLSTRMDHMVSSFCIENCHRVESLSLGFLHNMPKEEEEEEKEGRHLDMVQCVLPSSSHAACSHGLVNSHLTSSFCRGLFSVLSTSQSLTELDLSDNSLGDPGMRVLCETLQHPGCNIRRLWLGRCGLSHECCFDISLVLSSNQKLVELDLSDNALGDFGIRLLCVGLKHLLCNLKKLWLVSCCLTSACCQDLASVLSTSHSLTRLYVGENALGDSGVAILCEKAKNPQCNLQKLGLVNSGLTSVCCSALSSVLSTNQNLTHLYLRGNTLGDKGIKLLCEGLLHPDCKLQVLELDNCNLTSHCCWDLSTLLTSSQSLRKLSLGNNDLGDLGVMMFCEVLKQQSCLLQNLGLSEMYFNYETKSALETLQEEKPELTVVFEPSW

Compound `COCCN(C)C(=O)c1cc(S(=O)(=O)NC(=O)Nc2c3c(cc4c2CCC4)CCC3)nn1C` [Example 27, 3-(N-((1,2,3,5,6,7-Hexahydro-s-indacen-4-yl)carbamoyl)sulfamoyl)-N-(2-methoxyethyl)-N,1-dimethyl-1H-pyrazole-5-carboxamide] gave an IC50 in series [1] of 40 to 160 nM. Moreover, in series [2], the IC50 lay in the range of 400 to 800 nM. For the same compound, in series [3], the CL/F worked out at 21.5 mL/min/kg, the Tmax turned out to be 4.8 min, the bioavailability is 67% and the half-life was 4.9 h.
As for `CNC(=O)c1cc(S(=O)(=O)NC(=O)Nc2c(C(C)C)cc(F)cc2C(C)C)nn1C` [Example 50, 3-(N-((4-Fluoro-2,6-diisopropylphenyl)carbamoyl)sulfamoyl)-N,1-dimethyl-1H-pyrazole-5-carboxamide], the concentration for half-maximal inhibition (IC50) in series [1] is 160 to 640 nM; in series [2], below 400 nM.
With `CC(C)c1cccc(C(C)C)c1NC(=O)NS(=O)(=O)c1cc(C(=O)N2CCC2)n(C)n1` [Example 51, 5-(Azetidine-1-carbonyl)-N-((2,6-diisopropylphenyl)carbamoyl)-1-methyl-1H-pyrazole-3-sulfonamide], the IC50 in series [1] is 160 to 640 nM; in series [2], below 400 nM.
In the same order, the values of `CN(C(=O)c1cc(S(=O)(=O)NC(=O)Nc2c3c(cc4c2CCC4)CCC3)nn1C)C1CC1` [Example 52, N-Cyclopropyl-3-(N-((1,2,3,5,6,7-hexahydro-s-indacen-4-yl)carbamoyl)sulfamoyl)-N,1-dimethyl-1H-pyrazole-5-carboxamide] are 40 to 160 nM and 400 to 800 nM.
As to `CN(CC#N)C(=O)c1cc(S(=O)(=O)NC(=O)Nc2c3c(cc4c2CCC4)CCC3)nn1C` [Example 53, N-(Cyanomethyl)-3-(N-((1,2,3,5,6,7-hexahydro-s-indacen-4-yl)carbamoyl)sulfamoyl)-N,1-dimethyl-1H-pyrazole-5-carboxamide], the IC50 was 160 to 640 nM in series [1] and 800 to 1600 nM in series [2].
As to `Cn1nc(S(=O)(=O)NC(=O)Nc2c3c(cc4c2CCC4)CCC3)cc1C(=O)N1CCC1` [Example 54, 5-(Azetidine-1-carbonyl)-N-((1,2,3,5,6,7-hexahydro-s-indacen-4-yl)carbamoyl)-1-methyl-1H-pyrazole-3-sulfonamide], the IC50 is 40 to 160 nM in series [1] and 1600 to 3200 nM in series [2].
Turning to `CNC(=O)c1cc(S(=O)(=O)NC(=O)Nc2c(C(C)C)cccc2C(C)C)nn1C` [Example 55, 3-(N-((2,6-Diisopropylphenyl)carbamoyl)sulfamoyl)-N,1-dimethyl-1H-pyrazole-5-carboxamide], the IC50 in series [1] lay within 160 to 640 nM; in series [2], 400 to 800 nM.
Take `CCN(C)C(=O)c1cc(S(=O)(=O)NC(=O)Nc2c(C(C)C)cccc2C(C)C)nn1C` [Example 56, 3-(N-((2,6-Diisopropylphenyl)carbamoyl)sulfamoyl)-N-ethyl-N,1-dimethyl-1H-pyrazole-5-carboxamide]: the IC50 was in the range of 640 to 2560 nM in series [1] and 1600 to 3200 nM in series [2].
The like results for `CC(C)c1cccc(C(C)C)c1NC(=O)NS(=O)(=O)c1cc(C(=O)N(C)C(C)C)n(C)n1` [Example 58, 3-(N-((2,6-Diisopropylphenyl)carbamoyl)sulfamoyl)-N-isopropyl-N,1-dimethyl-1H-pyrazole-5-carboxamide] were, in that order, 160 to 640 nM and 400 to 800 nM.
For the compound `CC(C)N(C)C(=O)c1cc(S(=O)(=O)NC(=O)Nc2c3c(cc4c2CCC4)CCC3)nn1C` [Example 64, 3-(N-((1,2,3,5,6,7-Hexahydro-s-indacen-4-yl)carbamoyl)sulfamoyl)-N-isopropyl-N,1-dimethyl-1H-pyrazole-5-carboxamide], the concentration for half-maximal inhibition (IC50) in series [1] lay in the range of 40 to 160 nM; in series [2] it was 1600 to 3200 nM.
For `CCN(CC)C(=O)c1cc(S(=O)(=O)NC(=O)Nc2c3c(cc4c2CCC4)CCC3)nn1C` [Example 65, N,N-Diethyl-3-(N-((1,2,3,5,6,7-hexahydro-s-indacen-4-yl)carbamoyl)sulfamoyl)-1-methyl-1H-pyrazole-5-carboxamide], the IC50 in series [1] lay within 40 to 160 nM; in series [2] it was 800 to 1600 nM.
In the same order, the values of `CC(C)c1cc(Cl)cc(C(C)C)c1NC(=O)NS(=O)(=O)c1cc(C(=O)N(C)CCO)n(C)n1` [Example 74, 3-(N-((4-Chloro-2,6-diisopropylphenyl)carbamoyl)sulfamoyl)-N-(2-hydroxyethyl)-N,1-dimethyl-1H-pyrazole-5-carboxamide] are 40 to 160 nM and 800 to 1600 nM.
As to `CN(CCO)C(=O)c1cc(S(=O)(=O)NC(=O)Nc2c3c(cc4c2CCC4)CCC3)nn1C` [Example 78, 3-(N-((1,2,3,5,6,7-Hexahydro-s-indacen-4-yl)carbamoyl)sulfamoyl)-N-(2-hydroxyethyl)-N,1-dimethyl-1H-pyrazole-5-carboxamide], the IC50 in series [1] was 40 to 160 nM; in series [2], below 400 nM.
As to `COCCN(CCOC)C(=O)c1cc(S(=O)(=O)NC(=O)Nc2c(-c3ccnc(OC(C)C)c3)cc(F)cc2C(C)C)nn1C` [Example 79, 3-(N-((4-Fluoro-2-(2-isopropoxypyridin-4-yl)-6-isopropyl-phenyl)carbamoyl)sulfamoyl)-N,N-bis(2-methoxyethyl)-1-methyl-1H-pyrazole-5-carboxamide], the IC50 in series [1] is 2560 to 10000 nM; in series [2], 3200 to 10000 nM.
Consider `COCCN(CCOC)C(=O)c1cc(S(=O)(=O)NC(=O)Nc2c(-c3ccnc(OC)c3)ccc3c2CCC3)nn1C` [Example 80, N,N-Bis(2-methoxyethyl)-3-(N-((5-(2-methoxypyridin-4-yl)-2,3-dihydro-1H-inden-4-yl)carbamoyl)sulfamoyl)-1-methyl-1H-pyrazole-5-carboxamide], for which the IC50 in series [1] was 160 to 640 nM; in series [2] it was below 400 nM.
Turning to `CC(C)Oc1cc(-c2cc(F)cc(C(C)C)c2NC(=O)NS(=O)(=O)c2cc(C(=O)N(C)C)n(C)n2)ccn1` [Example 81, 3-(N-((4-Fluoro-2-(2-isopropoxypyridin-4-yl)-6-isopropyl-phenyl)carbamoyl)sulfamoyl)-N,N,1-trimethyl-1H-pyrazole-5-carboxamide], the IC50 in series [1] was 160 to 640 nM; in series [2], 1600 to 3200 nM.
The like results for `COc1cc(-c2ccc3c(c2NC(=O)NS(=O)(=O)c2cc(C(=O)N(C)C)n(C)n2)CCC3)ccn1` [Example 82, 3-(N-((5-(2-Methoxypyridin-4-yl)-2,3-dihydro-1H-inden-4-yl)carbamoyl)sulfamoyl)-N,N,1-trimethyl-1H-pyrazole-5-carboxamide] were, in that order, below 40 nM and below 400 nM.
Consider `CN(C)C(=O)C(C)(C)n1ccc(S(=O)(=O)NC(=O)Nc2c3c(cc4c2CCC4)CCC3)n1` [Example 83, 2-(3-(N-((1,2,3,5,6,7-Hexahydro-s-indacen-4-yl)carbamoyl)sulfamoyl)-1H-pyrazol-1-yl)-N,N,2-trimethylpropanamide], for which the IC50 lay in the range of 40 to 160 nM in series [1] and 800 to 1600 nM in series [2].
Consider `COc1cc(-c2ccc3c(c2NC(=O)NS(=O)(=O)c2ccn(C(C)(C)C(=O)N(C)C)n2)CCC3)ccn1` [Example 84], for which the IC50 is below 40 nM in series [1] and below 400 nM in series [2].
